Starred links: 1 amine or outer side, 2 acyl side, 3 side chain; linkers in the order of their positions; H or OH if unused. Positions of bridges follow the written chain, without caps; N, C: chain ends. Non-standard residues stand in square brackets, D forms with d. Residues, ends and D or L forms follow the SMILES beside them. Chains are numbered I, II in the order given. *: point of attachment. ImPyβIm = Cn1cc(NC(=O)c2nccn2C)cc1C(=O)NCCC(=O)Nc1cn(C)c(C(=O)*)n1; HN(CH2CH2O)5CH2CH2NH = C(COCCOCCOCCOCCOCCN[*:2])N[*:1]; 4Amino1MeIm2CO = Cn1cc(N[*:1])nc1C(=O)[*:2]; Benzoyl(4-tBu) = CC(C)(C)c1ccc(C(=O)*)cc1; Lys(Et2) = CCN(CC)CCCC[C@H](N)C(=O)O; X1 = Cn1cc(N[*:1])cc1C(=O)[*:2]; dDab = NCC[C@@H](N)C(=O)O
System: Myotonic Dystrophy 1 affected patient fibroblasts (Coriell GM04602; 1600 CTG repeats)
Test: DM1 foci reduction assay (CAG10-Cy3 FISH, average foci per nucleus)
Type: cell-based
Details: Homo sapiens, Fibroblast, 48 h, read-out: Foci Reduction in Fibroblast EC50, 48 h (nM)
Method in brief: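 Read-out is mean nuclear foci per well from CAG10-Cy3 FISH (5 nM probe, overnight 37 °C) with DAPI nuclei, 4 fields per well at 20×. Compounds ran 48 h in 8-point, 3-fold series topping at 3 μM on 1600-CTG GM04602 fibroblasts, alongside GM07492 wild-type cells.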

SMILES | EC50
CCN(CC)CCCC[C@H](NC(=O)[C@H](CC(C)C)NC(=O)[C@H](C)NC(=O)[C@H](Cc1ccccc1)NC(=O)c1ccc(C(C)(C)C)cc1)C(=O)N[C@@H](CO)C(=O)NCCOCCOCCOCCOCCOCCNC(=O)c1nc(NC(=O)CCNC(=O)c2cc(NC(=O)c3nc(NC(=O)[C@H](N)CCNC(=O)c4cc(NC(=O)c5nc(NC(=O)c6cc(NC(=O)c7cccn7C)cn6C)cn5C)cn4C)cn3C)cn2C)cn1C [Compound 108] | 100 to 500 nM
CCN(CC)CCCC[C@H](NC(=O)[C@H](CC(C)C)NC(=O)[C@H](C)NC(=O)[C@H](Cc1ccccc1)NC(=O)c1ccc(C(C)(C)C)cc1)C(=O)N[C@@H](CO)C(=O)NCCOCCOCCOCCOCCOCCNC(=O)c1nc(NC(=O)CCNC(=O)c2cc(NC(=O)c3nc(NC(=O)[C@@H](CCNC(=O)c4cc(NC(=O)c5nc(NC(=O)c6cc(NC(=O)c7cccn7C)cn6C)cn5C)cn4C)NC(C)=O)cn3C)cn2C)cn1C [Compound 109] | > 500 nM
CCN(CC)CCCC[C@H](NC(=O)[C@H](CC(C)C)NC(=O)[C@H](C)NC(=O)[C@H](Cc1ccccc1)NC(=O)c1ccc(C(C)(C)C)cc1)C(=O)N[C@@H](CO)C(=O)NCCOCCOCCOCCOCCOCCNC(=O)c1cc(NC(=O)c2nc(NC(=O)CCCNC(=O)c3cc(NC(=O)c4nc(NC(=O)CCNC(=O)c5cc(NC(=O)c6nccn6C)cn5C)cn4C)cn3C)cn2C)cn1C [Compound 110] | > 500 nM
CCN(CC)CCCC[C@H](NC(=O)[C@H](CC(C)C)NC(=O)[C@H](C)NC(=O)[C@H](Cc1ccccc1)NC(=O)c1ccc(C(C)(C)C)cc1)C(=O)N[C@@H](CO)C(=O)NCCOCCOCCOCCOCCOCCNC(=O)c1cc(NC(=O)c2nc(NC(=O)[C@H](N)CCNC(=O)c3cc(NC(=O)c4nc(NC(=O)CCNC(=O)c5cc(NC(=O)c6nccn6C)cn5C)cn4C)cn3C)cn2C)cn1C [Compound 111] | > 500 nM
CCN(CC)CCCC[C@H](NC(=O)[C@H](CC(C)C)NC(=O)[C@H](C)NC(=O)[C@H](Cc1ccccc1)NC(=O)c1ccc(C(C)(C)C)cc1)C(=O)N[C@@H](CO)C(=O)NCCOCCOCCOCCOCCOCCNC(=O)c1cc(NC(=O)c2nc(NC(=O)[C@@H](CCNC(=O)c3cc(NC(=O)c4nc(NC(=O)CCNC(=O)c5cc(NC(=O)c6nccn6C)cn5C)cn4C)cn3C)NC(C)=O)cn2C)cn1C [Compound 112] | > 500 nM
CCN(CC)CCCC[C@H](NC(=O)[C@H](CC(C)C)NC(=O)[C@H](C)NC(=O)[C@H](Cc1ccccc1)NC(=O)c1ccc(C(C)(C)C)cc1)C(=O)N[C@@H](CO)C(=O)NCCOCCOCCOCCOCCOCCNC(=O)c1cc(NC(=O)c2cc(NC(=O)c3nc(NC(=O)c4cc(NC(=O)CCCNC(=O)c5nc(NC(=O)CCNC(=O)c6cc(NC(=O)c7nccn7C)cn6C)cn5C)cn4C)cn3C)cn2C)cn1C [Compound 113] | > 500 nM
CCN(CC)CCCC[C@H](NC(=O)[C@H](CC(C)C)NC(=O)[C@H](C)NC(=O)[C@H](Cc1ccccc1)NC(=O)c1ccc(C(C)(C)C)cc1)C(=O)N[C@@H](CO)C(=O)NCCOCCOCCOCCOCCOCCNC(=O)c1cc(NC(=O)c2cc(NC(=O)c3nc(NC(=O)c4cc(NC(=O)[C@@H](CCNC(=O)c5nc(NC(=O)CCNC(=O)c6cc(NC(=O)c7nccn7C)cn6C)cn5C)NC(C)=O)cn4C)cn3C)cn2C)cn1C [Compound 114] (I: {Benzoyl(4-tBu)}-FAL[Lys(Et2)]S / II: Ac-[dDab](ImPyβIm)[X1][4Amino1MeIm2CO][X1][X1]; linker I:C-II:C via HN(CH2CH2O)5CH2CH2NH) | > 500 nM
CCN(CC)CCCC[C@H](NC(=O)[C@H](CC(C)C)NC(=O)[C@H](C)NC(=O)[C@H](Cc1ccccc1)NC(=O)c1ccc(C(C)(C)C)cc1)C(=O)N[C@@H](CO)C(=O)NCCOCCOCCOCCOCCOCCNC(=O)c1cc(NC(=O)c2nc(NC(=O)c3cc(NC(=O)CCCNC(=O)c4nc(NC(=O)CCNC(=O)c5cc(NC(=O)c6nccn6C)cn5C)cn4C)cn3C)cn2C)cn1C [Compound 115] | > 500 nM
CCN(CC)CCCC[C@H](NC(=O)[C@H](CC(C)C)NC(=O)[C@H](C)NC(=O)[C@H](Cc1ccccc1)NC(=O)c1ccc(C(C)(C)C)cc1)C(=O)N[C@@H](CO)C(=O)NCCOCCOCCOCCOCCOCCNC(=O)c1cc(NC(=O)c2nc(NC(=O)c3cc(NC(=O)[C@H](N)CCNC(=O)c4nc(NC(=O)CCNC(=O)c5cc(NC(=O)c6nccn6C)cn5C)cn4C)cn3C)cn2C)cn1C [Compound 116] | > 500 nM
CCN(CC)CCCC[C@H](NC(=O)[C@H](CC(C)C)NC(=O)[C@H](C)NC(=O)[C@H](Cc1ccccc1)NC(=O)c1ccc(C(C)(C)C)cc1)C(=O)N[C@@H](CO)C(=O)NCCOCCOCCOCCOCCOCCNC(=O)c1cc(NC(=O)c2nc(NC(=O)c3cc(NC(=O)[C@H](CCNC(=O)c4nc(NC(=O)CCNC(=O)c5cc(NC(=O)c6nccn6C)cn5C)cn4C)NC(C)=O)cn3C)cn2C)cn1C [Compound 117] | > 500 nM
CC(C)C[C@H](NC(=O)[C@H](C)NC(=O)[C@H](Cc1ccccc1)NC(=O)c1ccc(C(C)(C)C)cc1)C(=O)N[C@@H](CCCCN(C)C1CC2CCC1C2)C(=O)N[C@@H](CO)C(=O)NCCOCCOCCNC(=O)c1cc(NC(=O)c2cc(NC(=O)c3nc(NC(=O)c4cc(NC(=O)[C@@H](N)CCNC(=O)c5nc(NC(=O)c6cc(NC(=O)c7cc(NC(=O)c8nccn8C)cn7C)cn6C)cn5C)cn4C)cn3C)cn2C)cn1C (stereo partly shown) [Compound 118] | > 500 nM
CC(C)C[C@H](NC(=O)[C@H](C)NC(=O)[C@H](Cc1ccccc1)NC(=O)c1ccc(C(C)(C)C)cc1)C(=O)N[C@@H](CCCCN(C)C1CC2CCC1C2)C(=O)N[C@@H](CO)C(=O)NCCOCCOCCOCCOCCOCCOCCOCCOCCOCCOCCNC(=O)c1cc(NC(=O)c2cc(NC(=O)c3nc(NC(=O)c4cc(NC(=O)[C@@H](N)CCNC(=O)c5nc(NC(=O)c6cc(NC(=O)c7cc(NC(=O)c8nccn8C)cn7C)cn6C)cn5C)cn4C)cn3C)cn2C)cn1C (stereo partly shown) [Compound 119] | > 500 nM

Same assay, conditions: Homo sapiens, Fibroblast; DM1 fibroblasts, 48 h treatment, 8-point dose response, 3 μM top dose; read-out: Foci Reduction in Fibroblast EC50, 48 h

SMILES | EC50
Cn1cc(NC(=O)c2cc(NC(=O)c3nc(NC(=O)c4cc(NC(=O)[C@@H](N)CCNC(=O)c5nc(NC(=O)CCNC(=O)c6cc(NC(=O)c7nccn7C)cn6C)cn5C)cn4C)cn3C)cn2C)cc1C(=O)NCCOCCOCCOCCOCCOCCN1CCC(C(=O)Nc2ncc(SCc3ncc(C(C)(C)C)o3)s2)CC1 [Compound 120] | > 500 nM
Cn1cc(NC(=O)c2cc(NC(=O)c3nc(NC(=O)c4cc(NC(=O)[C@@H](N)CCNC(=O)c5nc(NC(=O)CCNC(=O)c6cc(NC(=O)c7nccn7C)cn6C)cn5C)cn4C)cn3C)cn2C)cc1C(=O)NCCOCCOCCOCCOCCOCCOCCOCCOCCOCCOCCOCCOCCOCCOCCOCCN1CCC(C(=O)Nc2ncc(SCc3ncc(C(C)(C)C)o3)s2)CC1 [Compound 121] | > 500 nM
CC(C)c1cnn2c(NCc3ccc(OCCOCCOCCOCCOCCOCCNC(=O)c4cc(NC(=O)c5cc(NC(=O)c6nc(NC(=O)c7cc(NC(=O)[C@@H](N)CCNC(=O)c8nc(NC(=O)CCNC(=O)c9cc(NC(=O)c%10nccn%10C)cn9C)cn8C)cn7C)cn6C)cn5C)cn4C)cc3-n3cccn3)nc(OC3CCCNC3)nc12 (stereo partly shown) [Compound 122] | > 500 nM
Cn1cc(NC(=O)c2nc(NC(=O)CCNC(=O)c3cc(NC(=O)c4nccn4C)cn3C)cn2C)cc1C(=O)NCCCC(=O)Nc1cn(C)c(C(=O)NCCC(=O)Nc2cc(C(=O)Nc3cn(C)c(C(=O)NCCC(=O)NCCOCCOCCn4cc(CC(=O)Nc5ccc(C(=O)Nc6ccccc6N)cc5)nn4)n3)n(C)c2)n1 [Compound 123] | > 500 nM
Cn1cc(NC(=O)c2nc(NC(=O)CCNC(=O)c3cc(NC(=O)c4nccn4C)cn3C)cn2C)cc1C(=O)NCCCC(=O)Nc1cn(C)c(C(=O)NCCC(=O)Nc2cc(C(=O)Nc3cn(C)c(C(=O)NCCC(=O)NCCOCCOCCOCCOCCOCCOCCn4cc(CC(=O)Nc5ccc(C(=O)Nc6ccccc6N)cc5)nn4)n3)n(C)c2)n1 [Compound 124] | > 500 nM
Cn1cc(NC(=O)c2nc(NC(=O)CCNC(=O)c3cc(NC(=O)c4nccn4C)cn3C)cn2C)cc1C(=O)NCCCC(=O)Nc1cn(C)c(C(=O)NCCC(=O)Nc2cc(C(=O)Nc3cn(C)c(C(=O)NCCC(=O)NCCOCCOCCn4cc(CCCCN(Cc5ccc(C(=O)NO)cc5)C(=O)Nc5ccccc5)nn4)n3)n(C)c2)n1 [Compound 125] | > 500 nM
Cn1cc(NC(=O)c2nc(NC(=O)CCNC(=O)c3cc(NC(=O)c4nccn4C)cn3C)cn2C)cc1C(=O)NCCCC(=O)Nc1cn(C)c(C(=O)NCCC(=O)Nc2cc(C(=O)Nc3cn(C)c(C(=O)NCCC(=O)NCCOCCOCCOCCOCCOCCOCCn4cc(CCCCN(Cc5ccc(C(=O)NO)cc5)C(=O)Nc5ccccc5)nn4)n3)n(C)c2)n1 [Compound 126] | > 500 nM
CCCCN(Cc1ccc(C(=O)NO)cc1)C(=O)Nc1ccc(OCc2cn(CCOCCOCCNC(=O)CCNC(=O)c3nc(NC(=O)c4cc(NC(=O)CCNC(=O)c5nc(NC(=O)CCCNC(=O)c6cc(NC(=O)c7nc(NC(=O)CCNC(=O)c8cc(NC(=O)c9nccn9C)cn8C)cn7C)cn6C)cn5C)cn4C)cn3C)nn2)cc1 [Compound 127] | > 500 nM
CCCCN(Cc1ccc(C(=O)NO)cc1)C(=O)Nc1ccc(OCc2cn(CCOCCOCCOCCOCCOCCOCCNC(=O)CCNC(=O)c3nc(NC(=O)c4cc(NC(=O)CCNC(=O)c5nc(NC(=O)CCCNC(=O)c6cc(NC(=O)c7nc(NC(=O)CCNC(=O)c8cc(NC(=O)c9nccn9C)cn8C)cn7C)cn6C)cn5C)cn4C)cn3C)nn2)cc1 [Compound 128] | > 500 nM
Cn1cc(NC(=O)c2nc(NC(=O)CCNC(=O)c3cc(NC(=O)c4nccn4C)cn3C)cn2C)cc1C(=O)NCCCC(=O)Nc1cn(C)c(C(=O)NCCC(=O)Nc2cc(C(=O)Nc3cn(C)c(C(=O)NCCC(=O)NCCOCCOCCOCCOCCOCCOc4ccc(NC(=O)CCCCCCC(=O)NO)cc4)n3)n(C)c2)n1 [Compound 129, N-hydroxy-N′-{4-[(17-{3-[(1-methyl-4-{1-methyl-4-[3-({1-methyl-4-[4-({1-methyl-4-[1-methyl-4-(3-{[1-methyl-4-(1-methylimidazole-2-amido)pyrrol-2-yl]formamido}propanamido)imidazole-2-amido]pyrrol-2-yl}formamido)butanamido]imidazol-2-yl}formamido)propanamido]pyrrole-2-amido}imidazol-2-yl)formamido]propanamido}-3,6,9,12,15-pentaoxaheptadecan-1-yl)oxy]phenyl}octanediamide] | > 500 nM

Reference: patent US20240166693A1, “METHODS AND COMPOUNDS FOR MODULATING MYOTONIC DYSTROPY 1” (Design Therapeutics, Inc., priority 2020, published 2024)
